Experimental data published in patent US6878722B2, “Substituted cycloalkyl P1′ hepatitis C virus inhibitors” (Bristol-Myers Squibb Company, priority 2002, dated 2005).
Where two headings read alike, the source gives them in different places.

Tests used:
[1] = target: T1, HCV NS3/4A protease complex (BMS strain, genotype 1a) (Hepatitis C virus genotype 1a, UniProt P27958, C1454S); assay: Recombinant HCV NS3/4A protease complex FRET peptide assay, BMS strain; format: biochemical; details: IC50 range, NS3/4A BMS Strain
T1 construct: DNA encoding the recombinant HCV NS3/4A protease complex (amino acids 1027 to 1711) for these strains; inferred from the pET21b vector and Ni-NTA purification; made in house; host or cells: Escherichia coli BL21 (DE3), pET21b
T1 sequence (P27958 1658-1714, looked up, stated change not applied): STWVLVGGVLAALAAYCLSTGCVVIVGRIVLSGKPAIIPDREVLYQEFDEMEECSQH
T1 sequence (P27958 1027-1657, looked up, stated change not applied): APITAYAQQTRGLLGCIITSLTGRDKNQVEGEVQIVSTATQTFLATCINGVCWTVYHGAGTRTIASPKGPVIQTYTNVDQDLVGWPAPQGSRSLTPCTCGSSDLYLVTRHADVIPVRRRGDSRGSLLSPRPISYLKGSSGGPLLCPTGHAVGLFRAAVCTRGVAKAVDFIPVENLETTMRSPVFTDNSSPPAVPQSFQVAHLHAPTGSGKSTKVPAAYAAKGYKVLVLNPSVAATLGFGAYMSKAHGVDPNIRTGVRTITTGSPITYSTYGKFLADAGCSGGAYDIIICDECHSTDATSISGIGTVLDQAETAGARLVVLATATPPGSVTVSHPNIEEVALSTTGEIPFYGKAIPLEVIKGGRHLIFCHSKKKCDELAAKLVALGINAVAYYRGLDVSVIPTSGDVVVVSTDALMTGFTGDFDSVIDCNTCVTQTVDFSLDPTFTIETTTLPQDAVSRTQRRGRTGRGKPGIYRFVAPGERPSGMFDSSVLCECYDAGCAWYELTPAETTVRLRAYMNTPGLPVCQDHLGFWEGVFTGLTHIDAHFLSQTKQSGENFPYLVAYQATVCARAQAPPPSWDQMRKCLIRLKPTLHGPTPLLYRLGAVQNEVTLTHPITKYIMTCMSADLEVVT
Description: The purpose of this in vitro assay was to measure the inhibition of HCV NS3 protease complexes, derived from the BMS, H77C or J416S strains, as described below, by compounds of the present invention.
Serum from an HCV-infected patient was obtained from Dr. T. Wright, San Francisco Hospital. An engineered full-length cDNA (compliment deoxyribonucleic acid) template of the HCV genome (BMS strain) was constructed from DNA fragments obtained by reverse transcription-PCR (RT-PCR) of serum RNA (ribonucleic acid) and using primers selected on the basis of homology between other genotype 1a strains. […] The infectious clones, H77C (1a genotype) and J4L6S (1b genotype) were obtained from R. Purcell (NIH) and the sequences are published in Genbank (AAB67036, see Yanagi,M., Purcell,R. H., Emerson,S. U. and Bukh,J. Proc. Natl. Acad. Sci. U.S.A. 94(16),8738-8743 (1997); AF054247, see Yanagi,M., St Claire,M., Shapiro,M., Emerson,S. U., Purcell,R. H. and Bukh,J, Virology 244 (1), 161-172. (1998)).
The BMS, H77C and J4L6S strains were used for production of recombinant NS3/4A protease complexes. DNA encoding the recombinant HCV NS3/4A protease complex (amino acids 1027 to 1711) for these strains were manipulated as described by P. Gallinari et al. (see Gallinari P, Paolini C, Brennan D, Nardi C, Steinkuhler C, De Francesco R. Biochemistry. 38(17):5620-32, (1999)). Briefly, a three-lysine solubilizing tail was added at the 3′-end of the NS4A coding region. The cysteine in the P1 position of the NS4A-NS4B cleavage site (amino acid 1711) was changed to a glycine to avoid the proteolytic cleavage of the lysine tag. Furthermore, a cysteine to serine mutation was introduced by PCR at amino acid position 1454 to prevent the autolytic cleavage in the NS3 helicase domain. The variant DNA fragment was cloned in the pET21b bacterial expression vector (Novagen) and the NS3/4A complex was expressed in Escherichia. coli strain BL21 (DE3) (Invitrogen) following the protocol described by P. Gallinari et al. (see Gallinari P, Brennan D, Nardi C, Brunetti M, Tomei L, Steinkuhler C, De Francesco R., J. Virol. 72(8):6758-69 (1998)) with modifications. Briefly, NS3/4A expression was induced with 0.5 mM Isopropyl β-D-1-thiogalactopyranoside (IPTG) for 22 hr at 20° C. […] The cells were resuspended in lysis buffer (10 mL/g) consisting of 25 mM N-(2-Hydroxyethyl)Piperazine-N′-(2-Ethane Sulfonic acid) (HEPES), pH 7.5, 20% glycerol, 500 mM Sodium Chloride (NaCl), 0.5% Triton-X100, 1 ug/ml lysozyme, 5 mM Magnesium Chloride (MgCl2), 1 ug/ml DnaseI, 5 mM β-Mercaptoethanol (βME), Protease inhibitor—Ethylenediamine Tetraacetic acid (EDTA) free (Roche), homogenized and incubated for 20 mins at 4° C. The homogenate was sonicated and clarified by ultra-centrifugation at 235000 g for 1 hr at 4° C. Imidazole was added to the supernatant to a final concentration of 15 mM and the pH adjusted to 8.0. The crude protein extract was loaded on a Nickel-Nitrilotriacetic acid (Ni-NTA) column pre-equilibrated with buffer B (25 mM HEPES, pH 8.0, 20% glycerol, 500 mM NaCl, 0.5% Triton-X100, 15 mM imidazole, 5 mM βME). The sample was loaded at a flow rate of 1 mL/min. The column was washed with 15 column volumes of buffer C (same as buffer B except with 0.2% Triton-X100). The protein was eluted with 5 column volumes of buffer D (same as buffer C except with 200 mM Imidazole).
NS3/4A protease complex-containing fractions were pooled and loaded on a desalting column Superdex-S200 pre-equilibrated with buffer D (25 mM HEPES, pH7.5, 20% glycerol, 300 mM NaCl, 0.2% Triton-X100, 10 mM βME).

[2] = tested on: HCV replicon in Huh7 cells; assay: HCV replicon cell-based assay (FRET); details: Hepatitis C virus
Description: An HCV replicon whole cell system was established as described by Lohmann V, Korner F, Koch J, Herian U, Theilmann L, Bartenschlager R., Science 285(5424):110-3 (1999). This system enabled us to evaluate the effects of our HCV Protease compounds on HCV RNA replication. Briefly, using the HCV strain 1B sequence described in the Lohmann paper (Assession number: AJ238799), an HCV cDNA was generated encoding the 5′ internal ribosome entry site (IRES), the neomycin resistance gene, the EMCV (encephalomyocarditis viurs)-IRES and the HCV nonstructural proteins, NS3-NS5B, and 3′ non-translated region (NTR). In vitro transcripts of the cDNA were transfected into the human hepatoma cell line, Huh7. […] Resulting cell lines were characterized for positive and negative strand RNA production and protein production over time.
Huh7 cells, constitutively expressing the HCV replicon, were grown in Dulbecco's Modified Eagle Media (DMEM) containing 10% Fetal calf serum (FCS) and 1 mg/ml G418 (Gibco-BRL). Cells were seeded the night before (1.5×10^4 cells/well) in 96-well tissue-culture sterile plates. Compound and no compound controls were prepared in DMEM containing 4% FCS, 1:100 Penicillin/Streptomysin, 1:100 L-glutamine and 5% DMSO in the dilution plate (0.5% DMSO final concentration in the assay). Compound/DMSO mixes were added to the cells and incubated for 4 days at 37° C. After 4 days, plates were rinsed thoroughly with Phosphate-Buffered Saline (PBS) (3 times 150 μl). The cells were lysed with 25 μl of a lysis assay reagent containing the FRET peptide (RET S1, as described for the in vitro enzyme assay). The lysis assay reagent was made from 5× cell Luciferase cell culture lysis reagent(Promega #E153A) diluted to 1× with distilled water, NaCl added to 150 mM final, the FRET peptide diluted to 10 μM final from a 2 mM stock in 100% DMSO. The plate was then placed into the Cytofluor 4000 instrument which had been set to 340 nm excitation/490 emission, automatic mode for 21 cycles and the plate read in a kinetic mode. EC50 determinations were carried out as described for the IC50 determinations.

[3] = Huh-7, HCV replicon, read-out: EC50 range

Structure (SMILES)	IC50 [1]	EC50 [2, 3]	EC50 ([2]; Huh-7, read-out: EC50 range)
C=CC1C[C@]1(NC(=O)[C@@H]1C[C@@H](Oc2cc(-c3ccccc3)nc3cc(OC)ccc23)CN1C(=O)[C@@H](NC(=O)OC(C)(C)C)C(C)(C)C)C(=O)NS(=O)(=O)C1(C(=O)c2ccccc2)CC1 (stereo in doubt) [Compound 4, {1-[2-[1-(1-Benzoylcyclopropanesulfonyl-aminocarbonyl)-2-vinyl-cyclopropylcarbamoyl]-4-(7-methoxy-2-phenylquinolin-4-yloxy)-pyrrolidine-1-carbonyl]-2,2-dimethylpropyl}-carbamic acid tert-butyl ester]	50 to 500 nM	50 to 500 nM	
C=C[C@@H]1C[C@]1(NC(=O)[C@@H]1C[C@@H](Oc2cc(C3CC3)nc3cc(OC)ccc23)CN1C(=O)[C@@H](NC(=O)OC(C)(C)C)C(C)(C)C)C(=O)NS(=O)(=O)C1(CC2CC2)CC1 [Compound 70, (1-{4-(2-Cyclopropyl-7-methoxy-quinolin-4-yloxy)-2-[1-(1-cyclopropylmethyl-cyclopropanesulfonylaminocarbonyl)-2-vinyl-cyclopropylcarbamoyl]-pyrrolidine-1-carbonyl}-2,2-dimethyl-propyl)-carbamic acid tert-butyl ester]	< 50 nM	< 50 nM	
C=C[C@@H]1C[C@]1(NC(=O)[C@@H]1C[C@@H](Oc2cc(-c3ccccc3)nc3cc(OC)ccc23)CN1C(=O)[C@@H](NC(=O)OCCF)C(C)(C)C)C(=O)NS(=O)(=O)C1(Cc2ccccc2)CC1 [Compound 106]	< 50 nM	50 to 500 nM	
C=C[C@@H]1C[C@]1(NC(=O)[C@@H]1C[C@@H](Oc2cc(-c3ccccc3)nc3cc(OC)ccc23)CN1C(=O)[C@@H](NC(=O)COC)C(C)(C)C)C(=O)NS(=O)(=O)C1(Cc2ccccc2)CC1 [Compound 111]	50 to 500 nM	50 to 500 nM	
C=C[C@@H]1C[C@]1(NC(=O)[C@@H]1C[C@@H](Oc2cc(-c3nc(C(C)C)cs3)nc3cc(OC)ccc23)CN1C(=O)[C@@H](NC(=O)OC(C)(C)C)C(C)(C)C)C(=O)OS(=O)(=O)C1(CCC)CC1 [Compound 77]	< 50 nM	< 50 nM	
COc1ccc2c(O[C@@H]3C[C@@H](C(=O)NC4(C(=O)NS(=O)(=O)C5(C(=O)Nc6ccccc6)CC5)CC4)N(C(=O)[C@@H](NC(=O)OC(C)(C)C)C(C)(C)C)C3)cc(-c3ccccc3)nc2c1 [Compound 72, (1-{4-(7-Methoxy-2-phenyl-quinolin-4-yloxy)-2-[1-(1-phenylcarbamoyl-cyclopropanesulfonylaminocarbonyl)-cyclopropylcarbamoyl]-pyrrolidine-1-carbonyl}-2,2-dimethyl-propyl)-carbamic acid tert-butyl ester]	500 to 5000 nM	5000 to 50000 nM	
CCCC1(S(=O)(=O)NC(=O)[C@@]2(NC(=O)[C@@H]3C[C@@H](Oc4cc(-c5ccccc5)nc5cc(OC)ccc45)CN3C(=O)[C@@H](NC(=O)OC(C)(C)C)C(C)(C)C)CC2C2CC2)CC1 (stereo partly drawn) [Compound 203]	< 50 nM	50 to 500 nM	
COc1ccc2c(O[C@@H]3C[C@@H](C(=O)NC4(C(=O)NS(=O)(=O)C5(Cc6ccccc6)CC5)CC45CC5)N(C(=O)[C@@H](NC(=O)OC(C)(C)C)C(C)(C)C)C3)cc(-c3ccccc3)nc2c1 (mixture of isomers) [Compound 201, {1-[2-[1-(1-Benzyl-cyclopropanesulfonylaminocarbonyl)-spiro[2.2]pent-1-ylcarbamoyl]-4-(7-methoxy-2-phenyl-quinolin-4-yloxy)-pyrrolidine-1-carbonyl]-2,2-dimethyl-propyl}-carbamic acid tert-butyl ester]	500 to 5000 nM	5000 to 50000 nM	
C=C[C@@H]1C[C@]1(NC(=O)[C@@H]1C[C@@H](Oc2cc(-c3ccccc3)nc3cc(OC)ccc23)CN1C(=O)[C@@H](NC(=O)OC(C)(C)C)C(C)(C)C)C(=O)NS(=O)(=O)C1(C(=C)C)CC1 [Compound 43, {1-[2-[1-(1-Isopropenyl-cyclopropanesulfonylaminocarbonyl)-2-vinyl-cyclopropylcarbamoyl]-4-(7-methoxy-2-phenyl-quinolin-4-yloxy)-pyrrolidine-1-carbonyl]-2,2-dimethyl-propyl}-carbamic acid tert-butyl ester]	< 50 nM	< 50 nM	
C=C[C@@H]1C[C@]1(NC(=O)[C@@H]1C[C@@H](Oc2cc(-c3ccccc3)nc3cc(OC)ccc23)CN1C(=O)[C@@H](NC(=O)OC(C)(C)C)C(C)(C)C)C(=O)NS(=O)(=O)C1(Cc2ccncc2)CC1 [Compound 47]	< 50 nM	< 50 nM	
C=C[C@@H]1C[C@]1(NC(=O)[C@@H]1C[C@@H](Oc2cc(-c3ccccc3)nc3cc(OC)ccc23)CN1C(=O)[C@@H](NC(=O)OC1(C(=O)OCC)CC1)C(C)(C)C)C(=O)NS(=O)(=O)C1(Cc2ccccc2)CC1 [Compound 81]	50 to 500 nM		50 to 500 nM
C=C[C@@H]1C[C@]1(NC(=O)[C@@H]1C[C@@H](Oc2cc(-c3ccccc3)nc3cc(OC)ccc23)CN1C(=O)[C@@H](NC(=O)OC(C)(C)C)C(C)(C)C)C(=O)NS(=O)(=O)C1(CCCC)CC1 [Compound 30, {1-[2-[1-(1-Butyl-cyclopropanesulfonylaminocarbonyl)-2-vinyl-cyclopropylcarbamoyl]-4-(7-methoxy-2-phenyl-quinolin-4-yloxy)-pyrrolidine-1-carbonyl]-2,2-dimethyl-propyl}-carbamic acid tert-butyl ester]	< 50 nM	< 50 nM	
